According to patent publication US20150018311A1, “THERAPEUTIC BORON-CONTAINING COMPOUNDS” (priority 2012, published 2015):

Assays:
Test in all cases: Growth in liquid media in presence of test compound
Assay type in all cases: cell-based
[1] = tested on: Mycobacterium tuberculosis (H37Rv)
[2] = tested on: Pseudomonas aeruginosa (ATCC 27853)
Description: (§1) Test organisms used were the bacterial strains Escherichia coli (ATCC 25922), Pseudomonas aeruginosa (ATCC 27853), Staphylococcus aureus (ATCC 25923), Streptococcus pyogenes (ATCC 19615), and Mycobacterium tuberculosis (H37Rv), and the yeast strain Candida albicans (ATCC 90028).
(§2) The liquid media used for growth were Luria-Bertani (Becton Dickinson, Sparks, Md.) and Mueller-Hinton (bio-Merieux, Paris, France) broths, but with Saburo medium for Candida and Middlebrook 7H9 medium (Difco) for mycobacteria.
(§3) The strains were grown at 37° C. and after suitable cell concentrations had been reached, 100 μL of each cell suspension was added to a tube with growth media and test compound. Cultivation of the bacteria was then carried out in the presence of each test compound at 37° C. and the tubes examined for visible growth. The compounds were tested at concentrations of either 500 mg/l, 50 mg/l or 5 mg/l. This assay was repeated twice.
(§4) Some compounds were only tested against some test organisms. It will be appreciated that the charge of these molecules will depend on the environment, some of the Examples are shown with a suitable counter ion, some without.

[3] = tested on: Streptococcus pyogenes (ATCC 19615)
Description: as §1, §2, §3, §4

[4] = tested on: Escherichia coli (ATCC 25922)
Description: as §1, §2, §3, §4

[5] = tested on: Candida albicans (ATCC 90028)
Description: as §1, §2, §3, §4

[6] = tested on: Staphylococcus aureus (ATCC 25923)
Description: as §1, §2, §3, §4

| SMILES | Growth in the presence of test compound, M. tuberculosis ([1]; 5 mg/L) | Growth in the presence of test compound, M. tuberculosis ([1]; 50 mg/L) | Growth in the presence of test compound, M. tuberculosis ([1]; 500 mg/L) | Growth in the presence of test compound, P. aeruginosa ([2]; 5 mg/L) | Growth in the presence of test compound, P. aeruginosa ([2]; 50 mg/L) | Growth in the presence of test compound, P. aeruginosa ([2]; 500 mg/L) | Growth in the presence of test compound, S. pyogenes ([3]; 5 mg/L) | Growth in the presence of test compound, S. pyogenes ([3]; 50 mg/L) | Growth in the presence of test compound, S. pyogenes ([3]; 500 mg/L) | Growth in the presence of test compound, E. coli ([4]; 5 mg/L) | Growth in the presence of test compound, E. coli ([4]; 50 mg/L) | Growth in the presence of test compound, E. coli ([4]; 500 mg/L) | Growth in the presence of test compound, C. albicans ([5]; 5 mg/L) | Growth in the presence of test compound, C. albicans ([5]; 50 mg/L) | Growth in the presence of test compound, C. albicans ([5]; 500 mg/L) | Growth in the presence of test compound, S. aureus ([6]; 5 mg/L) | Growth in the presence of test compound, S. aureus ([6]; 50 mg/L) | Growth in the presence of test compound, S. aureus ([6]; 500 mg/L) |
| --- | --- | --- | --- | --- | --- | --- | --- | --- | --- | --- | --- | --- | --- | --- | --- | --- | --- | --- |
| C[C@H](N)C(=O)NC[C@H](Cc1ccccc1)B1OC2CC3CC(C3(C)C)[C@]2(C)O1 (stereo partly drawn) [Compound 15] | + | − | − | + | + | + | + | + | + | + | + | ± | + | + | − | + | + | − |
| CC1(C)C2CC3OB([C@H](CCc4ccccc4)CNC(=O)[C@@H](N)Cc4ccccc4)O[C@]3(C)C1C2 (stereo partly drawn) [Compound 18] | + | − | − | + | ± | ± | + | ± | ± | + | + | + | + | ± | ± | + | − | ± |
| CC1(C)C2CC3OB([C@H](CCc4ccccc4)CNC(=O)[C@@H](N)CCCCN)O[C@]3(C)C1C2 (stereo partly drawn) [Compound 19] | + | − | − | + | + | − | + | + | − | + | + | − | + | + | − | + | + | ± |
